Biological target: JAK2 (Homo sapiens, UniProt O60674)
Assay: biochemical

Chain of JAK2 (O60674 whole entry): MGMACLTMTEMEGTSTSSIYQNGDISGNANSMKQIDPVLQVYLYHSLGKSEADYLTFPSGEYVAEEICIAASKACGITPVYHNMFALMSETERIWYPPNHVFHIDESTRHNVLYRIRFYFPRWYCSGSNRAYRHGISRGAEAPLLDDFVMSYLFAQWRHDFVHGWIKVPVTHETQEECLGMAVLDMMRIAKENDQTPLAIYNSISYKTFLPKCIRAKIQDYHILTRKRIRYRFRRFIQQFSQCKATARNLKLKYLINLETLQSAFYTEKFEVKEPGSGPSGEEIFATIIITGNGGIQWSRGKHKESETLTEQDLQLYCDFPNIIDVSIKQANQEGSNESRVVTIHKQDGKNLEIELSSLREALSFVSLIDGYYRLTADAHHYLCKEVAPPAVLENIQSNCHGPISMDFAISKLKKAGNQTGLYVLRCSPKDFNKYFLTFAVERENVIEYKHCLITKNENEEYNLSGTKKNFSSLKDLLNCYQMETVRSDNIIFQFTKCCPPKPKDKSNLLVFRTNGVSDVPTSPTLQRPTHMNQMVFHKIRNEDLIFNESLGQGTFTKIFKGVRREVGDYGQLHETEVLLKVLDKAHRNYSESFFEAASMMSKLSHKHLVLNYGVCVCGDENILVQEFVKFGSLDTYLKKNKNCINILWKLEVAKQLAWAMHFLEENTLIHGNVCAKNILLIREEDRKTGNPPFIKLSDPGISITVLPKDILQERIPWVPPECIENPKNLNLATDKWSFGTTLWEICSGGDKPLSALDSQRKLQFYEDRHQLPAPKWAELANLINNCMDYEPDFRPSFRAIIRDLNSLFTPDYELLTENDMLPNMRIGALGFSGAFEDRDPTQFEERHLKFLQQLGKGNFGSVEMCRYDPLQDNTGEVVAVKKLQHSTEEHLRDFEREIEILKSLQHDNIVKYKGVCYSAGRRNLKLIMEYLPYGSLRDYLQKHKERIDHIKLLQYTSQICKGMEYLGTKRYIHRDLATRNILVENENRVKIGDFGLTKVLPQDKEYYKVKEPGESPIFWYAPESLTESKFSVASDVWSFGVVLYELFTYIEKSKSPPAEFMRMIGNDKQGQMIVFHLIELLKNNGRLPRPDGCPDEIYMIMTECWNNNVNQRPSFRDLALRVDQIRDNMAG

SMILES: O=C(c1ccccc1)c1ccc2nc3c4ccccc4c4ccccc4c3nc2c1 [SBLJ23, Dibenzo [a, c] phenazin-11-yl(phenyl) methanone]
- IC50: 522 nM

Source: paper PMC11915075, “Dibenzo [a, c] phenazin-11-yl(phenyl) methanone (SBLJ23), a novel selective inhibitor targeting JAK2^V617F mutation in myeloproliferative neoplasms” (Oncology Research, 2025)
